From PubChem BioAssay AID2060512 (Molecular Pharmacology Branch, DTP, NCI, 2025)
Values joined by “and” are separate entries in the source; they are usually repeats but may differ in a detail not shown here. Equal values may be shown once.

System: 186277-243-T-J2-PDC complex spheroid viability
Assay: Anticancer human tumor 186277-243-T-J2-PDC patient-derived colon adenocarcinoma cell line growth inhibition [GQUAD]
Details: for viability, T/C: stronger effect = lower value
Source text: DNA G-quadruplex Stabilizer Agents in Combinations in Complex Spheroids
A high-throughput screen of multi-cell type tumor spheroids was designed to identify active combinations of DNA G-quadruplex stabilizer agents and targeted small molecules. Complex spheroids include a stromal component modeled by human endothelial cells (HUVEC) and fibroblasts modeled by human mesenchymal stem cells (MSCs). The concentration ranges selected for each drug and investigational agent were based upon clinically achievable concentrations if the clinical Cmax of the agent was known.
Compounds. The drugs and investigational agents: pidnarulex (CX-5461; NSC782164), APTO-253 (NSC789042), BRACO-19 (NSC847499), peposertib (NSC802822), ceralasertib (NSC780249), elimusertib (NSC800525), camonsertib (NSC841442), AZD-1390 (NSC803789), olaparib (NSC753686), talazoparib (NSC767125), ART-558 (NSC835418), sotorasib (NSC818433), MRTX-1133 (NSC836407), SN-38 (NSC673596), topotecan (NSC609699), etoposide (NSC141540), doxorubicin (NSC123127), gemcitabine (NSC613327), 5-fluorouracil (NSC19893), paclitaxel (NSC125973), vemurafenib (NSC761431), panobinostat (NSC761190), R-306465 (JNJ-16241199; NSC773264), adavosertib (NSC754352), TP-3654 (NSC805149), carboplatin (NSC241240), KSQ-4279 (NSC840948), and staurosporine (NSC755774) were obtained from the National Cancer Institute (NCI) Developmental Therapeutics Program Chemical Repository (34). The FDA-approved anticancer drug set is available from the NCI Developmental Therapeutics Program. […] The stock solutions were prepared in dimethyl sulfoxide (DMSO, Sigma-Aldrich, St. Louis, MO, cat. D2650) at 800-fold the tested concentration and stored at -70 degrees C prior to their use. All drugs and investigational agents were tested over a range starting from a high concentration at or near the clinical Cmax and decreasing in half-log increments. If the clinical Cmax for an agent had not been determined, the highest concentration tested was 10 microM.
2.3 Cell Culture. All cells were maintained in an incubator at 37 degrees C and 5% CO2 with 95% humidity. The PDC lines were cultured according to standard operating procedures established by the NCI PDMR. All PDCs were thawed and cultured in Matrigel-coated flasks prepared with a working solution of 1X Ham's F-12 nutrient mix, without supplementation (Invitrogen, cat. 11765054), 100 U/mL penicillin-streptomycin (Invitrogen, cat. 15140122), and 2.5% Matrigel (Corning Inc., cat. 354248) for the first three passages. The 857933-349-R-J2-PDC line was cultured in 6C/Colon 1B media, which includes advanced DMEM/F-12 (Thermo Fisher Scientific, cat. 12634028), 10 mM HEPES (Thermo Fisher Scientific, cat. 15630080), 1X GlutaMAX supplement (Thermo Fisher Scientific, cat. 35050061), 0.1 mg/mL primocin (InvivoGen, cat. ant-pm-2), 10% defined fetal bovine serum, heat inactivated (HyClone Laboratories Inc., cat. SH30070.03HI), 50% L-WRN conditioned media (ATCC, cat. CRL-3276), 1.25 mM N-Acetyl-L-cysteine (Sigma-Aldrich, cat. A9165), 10 mM nicotinamide (Sigma-Aldrich, cat. N0636), 1X B-27 supplement (Thermo Fisher Scientific, cat. 17504044), 1X N-2 supplement (Thermo Fisher Scientific, cat. 17502048), 10 microM Y-27632 dihydrochloride (Tocris Bioscience, cat. 1254), and 50 ng/mL human EGF recombinant protein (Thermo Fisher Scientific, cat. PHG0311). The 485176-168-R4-J1-PDC line was cultured in Panc media, which includes all 6C/Colon 1B media components plus 100 ng/mL human FGF-10 (Thermo Fisher Scientific, cat. 100-26), 500 nM SB-431542 (Selleckchem, cat. S1067), and gastrin (Tocris, cat. 3006).
[…]
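Also: spheroids exposed to drugs for 7 days.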
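For viability, T/C in this document: 100% = DMSO vehicle control viability.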

Structure (SMILES): CC1COCCN1c1cc(-c2ccnn2C)c2ccnc(-c3ccn[nH]3)c2n1 (configuration not stated) + Cc1cnc(CNC(=O)c2c(=O)c3ccc(N4CCCN(C)CC4)nc3n3c2sc2ccccc23)cn1
- IC50 (curve of first compound, second compound 0.0316 µM): < 31.6 nM
- IC50 (curve of first compound, second compound 0.1 µM): < 31.6 nM
- IC50 (curve of first compound, second compound 0.316 µM): < 31.6 nM
- IC50 (curve of first compound, second compound 1 µM): < 31.6 nM
- IC50 (curve of first compound, second compound 3.16 µM): < 31.6 nM
- IC50 (curve of first compound, second compound 10 µM): < 31.6 nM
- viability, T/C (second compound 0.0316 µM, first compound 0.0316 µM): 34.5%
- viability, T/C (second compound 0.0316 µM, first compound 0.1 µM): 16.1%
- viability, T/C (second compound 0.0316 µM, first compound 0.316 µM): 9.69%
- viability, T/C (second compound 0.0316 µM, first compound 1 µM): 5.33%
- viability, T/C (second compound 0.0316 µM, first compound 3.16 µM): 6.04%
- viability, T/C (second compound 0.0316 µM, first compound 10 µM): 5.15%
- viability, T/C (second compound 0.1 µM, first compound 0.0316 µM): 46.1%
- viability, T/C (second compound 0.1 µM, first compound 0.1 µM): 22.2%
- viability, T/C (second compound 0.1 µM, first compound 0.316 µM): 11.5%
- viability, T/C (second compound 0.1 µM, first compound 1 µM): 6.17%
- viability, T/C (second compound 0.1 µM, first compound 3.16 µM): 6.04%
- viability, T/C (second compound 0.1 µM, first compound 10 µM): 5.5%
- viability, T/C (second compound 0.316 µM, first compound 0.0316 µM): 46.5%
- viability, T/C (second compound 0.316 µM, first compound 0.1 µM): 30%
- viability, T/C (second compound 0.316 µM, first compound 0.316 µM): 21%
- viability, T/C (second compound 0.316 µM, first compound 1 µM): 10.3%
- viability, T/C (second compound 0.316 µM, first compound 3.16 µM): 6.67%
- viability, T/C (second compound 0.316 µM, first compound 10 µM): 5.76%
- viability, T/C (second compound 1 µM, first compound 0.0316 µM): 35.3%
- viability, T/C (second compound 1 µM, first compound 0.1 µM): 31.9%
- viability, T/C (second compound 1 µM, first compound 0.316 µM): 24.9%
- viability, T/C (second compound 1 µM, first compound 1 µM): 17.1%
- viability, T/C (second compound 1 µM, first compound 3.16 µM): 10.4%
- viability, T/C (second compound 1 µM, first compound 10 µM): 5.91%
- viability, T/C (second compound 3.16 µM, first compound 0.0316 µM): 32.1%
- viability, T/C (second compound 3.16 µM, first compound 0.1 µM): 28.4%
- viability, T/C (second compound 3.16 µM, first compound 0.316 µM): 26.2%
- viability, T/C (second compound 3.16 µM, first compound 1 µM): 17.8%
- viability, T/C (second compound 3.16 µM, first compound 3.16 µM): 13.2%
- viability, T/C (second compound 3.16 µM, first compound 10 µM): 6.37%
- viability, T/C (second compound 10 µM, first compound 0.0316 µM): 27.9%
- viability, T/C (second compound 10 µM, first compound 0.1 µM): 26%
- viability, T/C (second compound 10 µM, first compound 0.316 µM): 24.6%
- viability, T/C (second compound 10 µM, first compound 1 µM): 17.3%
- viability, T/C (second compound 10 µM, first compound 3.16 µM): 12%
- viability, T/C (second compound 10 µM, first compound 10 µM): 6.6%

Structure (SMILES): Cc1cnc(CNC(=O)c2c(=O)c3ccc(N4CCCN(C)CC4)nc3n3c2sc2ccccc23)cn1
- viability, T/C (compound 0.0316 µM): 97.7% [middle of 12 runs]
- viability, T/C (compound 0.316 µM): 76.8% [middle of 12 runs]
- viability, T/C (compound 1 µM): 61.5% [middle of 12 runs]
- viability, T/C (compound 3.16 µM): 43.7% [middle of 12 runs]
- viability, T/C (compound 10 µM): 39.7% [middle of 12 runs]
- IC50 (compound alone, run of 04/16/2024): 2.36 µM [middle of 12 runs]

Structure (SMILES): CC(=O)O[C@H]1C(=O)[C@@]2(C)[C@H]([C@H](OC(=O)c3ccccc3)[C@]3(O)C[C@H](OC(=O)[C@H](O)[C@@H](NC(=O)c4ccccc4)c4ccccc4)C(C)=C1C3(C)C)[C@]1(OC(C)=O)CO[C@@H]1C[C@@H]2O
- viability, T/C (compound 0.0316 µM): 11.9% and 17.4% and 29%
- viability, T/C (compound 0.1 µM): 4.45% and 7.62% and 9.72%
- viability, T/C (compound 0.316 µM): 5.05% and 6.94% and 9.26%
- viability, T/C (compound 1 µM): 5.03% and 4.51% and 8.19%
- viability, T/C (compound 3.16 µM): 4.85% and 4.62% and 5.67%
- viability, T/C (compound 10 µM): 4.7% and 4.26% and 6.48%
- IC50 (curve of compound): < 31.6 nM

Structure (SMILES): CC1COCCN1c1cc(C2(O)CC3CCC(C2)O3)c2cnn(-c3ccn[nH]3)c2n1 (configuration not stated)
- viability, T/C (compound 0.0316 µM): 64.6% and 66.1% and 52.2%
- viability, T/C (compound 0.1 µM): 13.1% and 14.8% and 10%
- viability, T/C (compound 0.316 µM): 7.61% and 5.43% and 6.02%
- viability, T/C (compound 1 µM): 4.72% and 5.45% and 4.44%
- viability, T/C (compound 3.16 µM): 4.67% and 5.36% and 4.31%
- viability, T/C (compound 10 µM): 3.02% and 2.97% and 3.42%
- IC50 (curve of compound): 43.7 nM and 45.3 nM and 33.4 nM
